From PMC7350407, “Kinetic Modifications of C4 PEPC Are Qualitatively Convergent, but Larger in Panicum Than in Flaveria” (Frontiers in Plant Science, 2020)
Where two headings read alike, the source gives them in different places. Each block holds one molecule with its values, some of them ahead of it.

What was measured:
[1] = target: T1, Panicum pygmaeum (C3) PEPC; assay: malate dehydrogenase-coupled NADH assay, secondary plot of kcat/Km(HCO3-) against PEP; type: biochemical; details: substrate constant at limiting bicarbonate, not inhibition; pH 8.0, 25 °C, 10 mM MgCl2
T1 construct: gene ppc-1P3; full-length, 969 codons, codon-optimised synthetic gene, N-terminal His6 tag kept, E. coli BL21(DE3)
Source text: malate dehydrogenase-coupled NADH assay, secondary plot of kcat/Km(HCO3-) against PEP on Panicum pygmaeum (C3) PEPC

[2] = target: T2, Panicum queenslandicum (C4) PEPC; assay: as above; type: biochemical; details: substrate constant at limiting bicarbonate, not inhibition; pH 8.0, 25 °C, 10 mM MgCl2
T2 construct: gene ppc-1P3; full-length, 962 codons, N-terminal His6 tag kept, E. coli BL21(DE3), cloned from leaf cDNA
Source text: malate dehydrogenase-coupled NADH assay, secondary plot of kcat/Km(HCO3-) against PEP on Panicum queenslandicum (C4) PEPC

[3] = target: T3, Flaveria pringlei (C3) PEPC (Flaveria pringlei, UniProt Q01647); assay: as above; type: biochemical; details: substrate constant at limiting bicarbonate, not inhibition; pH 8.0, 25 °C, 10 mM MgCl2
T3 construct: gene PPCA1; full-length, 967 codons, N-terminal His6 tag kept (pET-1B His6 TEV LIC), E. coli BL21(DE3)
Source text: malate dehydrogenase-coupled NADH assay, secondary plot of kcat/Km(HCO3-) against PEP on Flaveria pringlei (C3) PEPC

[4] = tested on: T2, Panicum queenslandicum (C4) PEPC; assay: malate dehydrogenase-coupled NADH assay, […] nm, secondary plot; type: biochemical; details: co-substrate bicarbonate; pH 8.0, 25 °C, 10 mM MgCl2; read-out: KmPEP
[5] = target: T4, Flaveria trinervia (C4) PEPC (Flaveria trinervia, UniProt P30694); assay: malate dehydrogenase-coupled NADH assay, secondary plot of kcat/Km(HCO3-) against PEP; type: biochemical; details: substrate constant at limiting bicarbonate, not inhibition; pH 8.0, 25 °C, 10 mM MgCl2
T4 construct: gene PPCA; full-length, 967 codons, N-terminal His6 tag kept (pET-1B His6 TEV LIC), E. coli BL21(DE3)
Source text: malate dehydrogenase-coupled NADH assay, secondary plot of kcat/Km(HCO3-) against PEP on Flaveria trinervia (C4) PEPC

[6] = tested on: T1, Panicum pygmaeum (C3) PEPC; assay: malate dehydrogenase-coupled NADH assay, […] nm, secondary plot; type: biochemical; details: co-substrate bicarbonate; pH 8.0, 25 °C, 10 mM MgCl2; read-out: KmPEP
[7] = tested on: T5, Panicum pygmaeum (C3) PEPC; details: read-out: KmHCO3-; co-substrate PEP; pH 8.0, 25 °C, 10 mM MgCl2
T5 construct: gene ppc-1P3

[8] = tested on: T6, Panicum queenslandicum (C4) PEPC; details: read-out: KmHCO3-; co-substrate PEP; pH 8.0, 25 °C, 10 mM MgCl2
T6 construct: gene ppc-1P3

[9] = target: T1, Panicum pygmaeum (C3) PEPC; assay: malate dehydrogenase-coupled NADH assay, […] nm; type: biochemical; details: pH 8.0, 25 °C, 10 mM MgCl2, 5 mM KHCO3, PEP varied
[10] = target: T2, Panicum queenslandicum (C4) PEPC; assay: malate dehydrogenase-coupled NADH assay, […] nm; type: biochemical; details: pH 8.0, 25 °C, 10 mM MgCl2, 5 mM KHCO3, PEP varied
[11] = target: T3, Flaveria pringlei (C3) PEPC; assay: malate dehydrogenase-coupled NADH assay, […] nm; type: biochemical
[12] = target: T4, Flaveria trinervia (C4) PEPC; assay: malate dehydrogenase-coupled NADH assay, […] nm; type: biochemical
purified protein [13] = substrate: O=C(O)O; assay: purified protein; details: co-substrate PEP, pH 8.0, 25 °C, 10 mM MgCl2
purified protein [14] = substrate: C=C(OP(=O)(O)O)C(=O)O; assay: purified protein; type: biochemical, Flaveria trinervia; details: co-substrate bicarbonate, pH 8.0, 25 °C, 10 mM MgCl2
purified protein [15] = substrate: C=C(OP(=O)(O)O)C(=O)O; assay: purified protein; type: biochemical, Flaveria pringlei; details: co-substrate bicarbonate, pH 8.0, 25 °C, 10 mM MgCl2
[16] = competitive, read-out: KicAspartate
[17] = mixed inhibitor, competitive constant (limiting PEP), read-out: KicMalate

Molecule: C=C(OP(=O)(O)O)C(=O)O [PEP]
- KiPEP [1]: 0.05 ± 0.01 mM
- KiPEP [2]: 4.39 ± 1.10 mM
- KiPEP [3]: 0.02 ± 0.01 mM
- Km [4]: 4170 ± 300 µM
- KiPEP [5]: 0.40 ± 0.13 mM
- Km [6]: 170 ± 50 µM

Molecule: N[C@@H](CC(=O)O)C(=O)O [aspartate]
- Ki [9, 16]: 2.27 ± 0.02 mM
- Ki [10, 16]: 49.4 ± 7.86 mM
- Ki ([11]; read-out: KicAspartate): 4.13 ± 0.6 mM
- Ki ([12]; read-out: KicAspartate): 40 ± 6.49 mM

B1: Flaveria trinervia (C4) PEPC (Flaveria trinervia) (protein)
chain: MANRNVEKLASIDAQLRLLVPGKVSEDDKLVEYDALLLDKFLDILQDLHGEDLKEAVQQCYELSAEYEGKHDPKKLEELGSLLTSLDTGDSIVIAKAFSHMLNLANLAEELQIAYRRRIKLKSGDFADEANATTESDIEETFKRLVHKLNKSPEEVFDALKNQTVELVLTAHPTQSVRRSLLQKHGRIRNCLAQLYAKDITPDDKQELDEALHREIQAAFRTDEIRRTPPTPQDEMRAGMSYFHETIWKGVPKFLRRVDTALKNIGINERFPYNAPLIQFSSWMGGDRDGNPRVTPEVTRDVCLLARMMTSNMYFSQIEDLMIEMSMWRCNSELRVRAEELYRTARKDVKHYIEFWKRIPPNQPYRVILGDVRDKLYNTRERSRHLLVDGKSDIPDEAVYTNVEQLLEPLELCYRSLCDCGDHVIADGSLLDFLRQVSTFGLSLVKLDIRQESDRHTEVLDAITQHLGIGSYREWSEEKRQEWLLAELSGKRPLIGPDLPKTEEVKDCLDTFKVLAELPSDCFGAYIISMATSTSDVLAVELLQREYHIKHPLRVVPLFEKLADLEAAPAAMTRLFSMDWYRNRIDGKQEVMIGYSDSGKDAGRFSAAWQLYKTQEQIVKIAKEFGVKLVIFHGRGGTVGRGGGPTHLALLSQPPDTINGSLRVTVQGEVIEQSFGEEHLCFRTLQRFCAATLEHGMNPPISPRPEWRELMDQMAVVATEEYRSVVFKEPRFVEYFRLATPELEFGRMNIGSRPSKRKPSGGIESLRAIPWIFSWTQTRFHLPVWLGFGAAFKHAIQKDSKNLQMLQEMYKTWPFFRVTIDLVEMVFAKGNPGIAALNDKLLVSEDLRPFGESLRANYEETKNYLLKIAGHKDLLEGDPYLKQGIRLRDPYITTLNVCQAYTLKRIRDPNYHVTLRPHISKEYAAEPSKPADELIHLNPTSEYAPGLEDTLILTMKGIAAGMQNTG
notes: full-length, 967 codons, N-terminal His6 tag kept (pET-1B His6 TEV LIC), E. coli BL21(DE3)
- Km (purified protein [13]): 70 ± 10 µM
- kcat (purified protein [13]): 47.99 ± 1.21 s⁻¹
- kcat/Km (purified protein [13]): 690000 M⁻¹ s⁻¹
- Km (purified protein [14]): 600 ± 50 µM
- kcat (purified protein [14]): 47.99 ± 1.21 s⁻¹
- kcat/Km (purified protein [14]): 80000 ± 5400 M⁻¹ s⁻¹

B2: Flaveria pringlei (C3) PEPC (Flaveria pringlei) (protein)
chain: MANRNLEKLASIDAQLRLLVPGKVSEDDKLIEYDALLLDKFLDILQDLHGEDLKEAVQECYELSAEYEGKHDPKKLEELGSVLTSLDPGDSIVIAKAFSHMLNLANLAEEVQIAYRRRIKLKRGDFADEANATTESDIEETFKKLVLKLNKSPEEVFDALKNQTVDLVLTAHPTQSVRRSLLQKHGRIRNCLAQLYAKDITPDDKQELDEALHREIQAAFRTDEIRRTPPTPQDEMRAGMSYFHETIWKGVPKFLRRVDTALKNIGINERVPYNAPLIQFSSWMGGDRDGKHPRVTPEVTRDVCLLARMMASNMYFSQIEDLMFEMSMWRCNSELRVRAEELYRTARRDVKHYIEFWKQVPPTEPYRVILGDVRDKLYNTRERSRHLLAHGISDIPEEAVYTNVEQFLEPLELCYRSLCDCGDRVIADGSLLDFLRQVSTFGLSLVKLDIRQESDRHTDVLDAITQHLEIGSYREWSEEKRQEWLLAELSGKRPLFGSDLPKTEEVKDVLDTFNVLAELPSDCFGAYIISMATSPSDVLAVELLQRECHVKHPLRVVPLFEKLADLEAAPAAMARLFSIDWYRNRIDGKQEVMIGYSDSGKDAGRFSAAWQLYKAQEEIIKVAKEFGVKLVIFHGRGGTVGRGGGPTHLAILSQPPDTIHGSLRVTVQGEVIEQSFGEEHLCFRTLQRFCAATLEHGMNPPISPRPEWRELMDQMAVVATEEYRSIVFKEPRFVEYFRLATPELEYGRMNIGSRPSKRKPSGGIESLRAIPWIFAWTQTRFHLPVWLGFGAAFKHAIKKDSKNLQMLQEMYKTWPFFRVTIDLVEMVFAKGDPGIAALNDKLLVSEDLWPFGESLRANYEETKDYLLKIAGHRDLLEGDPYLKQRIRLRDSYITTLNVCQAYTLKRIRDPNYHVTLRPHISKEYAAEPSKPADELIHLNPTSEYAPGLEDTLILTMKGIAAGMQNTG
notes: as for B1
- Km (purified protein [13]): 100 ± 10 µM
- kcat (purified protein [13]): 52.65 ± 1.37 s⁻¹
- kcat/Km (purified protein [13]): 440000 M⁻¹ s⁻¹
- Km (purified protein [15]): 60 ± 10 µM
- kcat (purified protein [15]): 52.65 ± 1.37 s⁻¹
- kcat/Km (purified protein [15]): 940000 ± 84900 M⁻¹ s⁻¹

The next lines start with the values.

- Km [7]: 120 ± 20 µM
- Km [8]: 40 ± 20 µM
Molecule: O=C(O)O [bicarbonate]

- Ki [9, 17]: 0.52 ± 0.22 mM
- Ki [10, 17]: 7.51 ± 1.17 mM
- Ki ([11]; read-out: KicMalate): 2.14 ± 0.62 mM
- Ki ([12]; read-out: KicMalate): 11 ± 1.55 mM
Molecule: O=C(O)C[C@H](O)C(=O)O [malate]
